These are literature values, as cited in patent US20200230099A1, “Stable Pharmaceutical Composition Comprising Zanamivir” (Dae Hwa Pharma. Co., Ltd., priority 2017, published 2020).

Where two headings read alike, the source gives them in different places.

For the series the following is noted: in vivo.

For `CC(=O)N[C@H]1[C@H]([C@H](O)[C@H](O)CO)OC(C(=O)O)=C[C@@H]1N=C(N)N` [zanamivir, 5-(acetylamino)-4-[(aminoiminomethyl)amino]-2,6-anhydro-3,4,5-trideoxy-D-glycero-D-galacto-non-2-enonic acid], the bioavailability result is “about 2%”. In addition, the bioavailability (inhaled or intranasal) was 4-17%.
